Test results published in patent US12187713B2, “Immunomodulators, compositions and methods thereof” (Betta Pharmaceuticals Co., Ltd, priority 2019, dated 2025).

What follows are molecules tested against PD-1/PD-L1 (Homo sapiens (Human), UniProt Q9NZQ7) (assay: PD-1/PD-L1 Binding Assay (Alphascreen)). Conditions: numeric values.
In short: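 PD-1/PD-L1 binding detected by anti-6×His acceptor and streptavidin donor beads after 120 min in the dark at 25 °C. Beforehand, the two proteins were incubated 15 min at 25 °C with inhibitor at 0.015–300 nM (1% DMSO). IC50 comes from a log concentration–response curve.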

Sequence of PD-1/PD-L1 (Q9NZQ7 19-238): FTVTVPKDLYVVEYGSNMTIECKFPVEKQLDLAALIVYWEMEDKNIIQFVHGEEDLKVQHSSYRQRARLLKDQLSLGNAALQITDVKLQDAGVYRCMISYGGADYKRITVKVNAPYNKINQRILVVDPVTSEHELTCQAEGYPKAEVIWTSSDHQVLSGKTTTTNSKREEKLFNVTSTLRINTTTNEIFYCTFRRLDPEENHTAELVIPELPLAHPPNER

Row | IC50 [nM] | SMILES
1 | 0.14 | Cc1c(-c2nc3cc(CN4CC(C)(C)C4)c(OC(F)F)cc3o2)cccc1-c1cccc(-c2nc3cc(CN4CCC[C@H]4C(=O)O)c(OC(F)F)cc3o2)c1C#N [Example 128, ((2-(2-cyano-3′-(6-(difluoromethoxy)-5-((3,3-dimethylazetidin-1-yl)methyl)benzo[d]oxazol-2-yl)-2′-methyl-[1,1′-biphenyl]-3-yl)-6-(difluoromethoxy)benzo[d]oxazol-5-yl)methyl)-L-proline]
2 | 1.7 | Cc1c(-c2nc3cc(CN4CCC[C@H]4C(=O)O)c(OC(F)F)cc3o2)cccc1-c1cccc(-c2nc3cc(CN4CC(C)(CO)C4)cc(C#N)c3o2)c1C [Example 129, ((2-(3′-(7-cyano-5-((3-(hydroxymethyl)-3-methylazetidin-1-yl)methyl)benzo[d]oxazol-2-yl)-2,2′-dimethyl-[1,1′-biphenyl]-3-yl)-6-(difluoromethoxy)benzo[d]oxazol-5-yl)methyl)-L-proline]
3 | 2 | Cc1c(-c2nc3cc(CN4CCC[C@@H]4C(=O)O)c(OC(F)F)cc3o2)cccc1-c1cccc(-c2nc3cc(CN4CC[C@@H](C)C4)cc(C#N)c3o2)c1C [Example 132, ((2-(3′-(7-cyano-5-(((R)-3-methylpyrrolidin-1-yl)methyl)benzo[d]oxazol-2-yl)-2,2′-dimethyl-[1,1′-biphenyl]-3-yl)-6-(difluoromethoxy)benzo[d]oxazol-5-yl)methyl)-D-proline]

Second part, the molecule before the results:

Row | SMILES | IC50 [nM]
4 | Cc1c(-c2nc3cc(CN4CCC[C@H]4C(=O)O)c(OC(F)F)cc3o2)cccc1-c1cccc(-c2nc3cc(CN4CC(C)(C)C4)cnc3o2)c1C [Example 113, ((6-(difluoromethoxy)-2-(3′-(6-((3,3-dimethylazetidin-1-yl)methyl)oxazolo[5,4-b]pyridin-2-yl)-2,2′-dimethyl-[1,1′-biphenyl]-3-yl)benzo[d]oxazol-5-yl)methyl)-L-proline] | 0.5
5 | Cc1c(-c2nc3cc(CN4CCC[C@H]4C(=O)O)c(OC(F)F)cc3o2)cccc1-c1cccc(-c2nc3cc(CN4CCCC4)c(F)c(F)c3o2)c1C#N [Example 118, ((2-(2′-cyano-3′-(6,7-difluoro-5-(pyrrolidin-1-ylmethyl)benzo[d]oxazol-2-yl)-2-methyl-[1,1′-biphenyl]-3-yl)-6-(difluoromethoxy)benzo[d]oxazol-5-yl)methyl)-L-proline] | 78
6 | Cc1c(-c2nc3cc(CNCCO)c(OCc4ccc(C#N)nc4)cc3o2)cccc1-c1cccc(-c2nc3cc(CN4CCC[C@H]4C(=O)O)c(OC(F)F)cc3o2)c1C [Example 119, ((2-(3′-(6-((6-cyanopyridin-3-yl)methoxy)-5-(((2-hydroxyethyl)amino)methyl)benzo[d]oxazol-2-yl)-2,2′-dimethyl-[1,1′-biphenyl]-3-yl)-6-(difluoromethoxy)benzo[d]oxazol-5-yl)methyl)-L-proline] | 1.9
7 | Cc1c(-c2nc3cc(CNCCO)c(OCc4cncc(C#N)c4)cc3o2)cccc1-c1cccc(-c2nc3cc(CN4CCC[C@H]4C(=O)O)c(OC(F)F)cc3o2)c1C [Example 120, ((2-(3′-(6-((5-cyanopyridin-3-yl)methoxy)-5-(((2-hydroxyethyl)amino)methyl)benzo[d]oxazol-2-yl)-2,2′-dimethyl-[1,1′-biphenyl]-3-yl)-6-(difluoromethoxy)benzo[d]oxazol-5-yl)methyl)-L-proline] | 1.1
8 | Cc1c(-c2nc3cc(CNCCO)c(OCc4cncc(S(C)(=O)=O)c4)cc3o2)cccc1-c1cccc(-c2nc3cc(CN4CCC[C@H]4C(=O)O)c(OC(F)F)cc3o2)c1C [Example 121, ((6-(difluoromethoxy)-2-(3′-(5-(((2-hydroxyethyl)amino)methyl)-6-((5-(methylsulfonyl)pyridin-3-yl)methoxy)benzo[d]oxazol-2-yl)-2,2′-dimethyl-[1,1′-biphenyl]-3-yl)benzo[d]oxazol-5-yl)methyl)-L-proline] | 0.6

Same assay, conditions: range symbols

Row | IC50 [nM] | SMILES
9 | 0.1 to 5 | Cc1c(-c2nc3cc(CN(C)C)c(OCc4cncc(S(C)(=O)=O)c4)cc3o2)cccc1-c1cccc(-c2nc3cc(CN4CCC[C@H]4C(=O)O)c(OC(F)F)cc3o2)c1C [Example 123, ((6-(difluoromethoxy)-2-(3′-(5-((dimethylamino)methyl)-6-((5-(methylsulfonyl)pyridin-3-yl)methoxy)benzo[d]oxazol-2-yl)-2,2′-dimethyl-[1,1′-biphenyl]-3-yl)benzo[d]oxazol-5-yl)methyl)-L-proline]
10 | 0.1 to 5 | CNCc1cc2nc(-c3cccc(-c4cccc(-c5nc6cc(CN7CCC[C@H]7C(=O)O)c(OC(F)F)cc6o5)c4C)c3C)oc2cc1OCc1cccc(S(C)(=O)=O)c1 [Example 124, ((6-(difluoromethoxy)-2-(2,2′-dimethyl-3′-(5-((methylamino)methyl)-6-((3-(methylsulfonyl)benzyl)oxy)benzo[d]oxazol-2-yl)-[1,1′-biphenyl]-3-yl)benzo[d]oxazol-5-yl)methyl)-L-proline]
11 | 0.1 to 5 | CNCc1cc2nc(-c3cccc(-c4cccc(-c5nc6cc(CN7CCC[C@H]7C(=O)O)c(OC(F)F)cc6o5)c4C)c3C)oc2cc1OCc1ccc(S(C)(=O)=O)cc1 [Example 125, ((6-(difluoromethoxy)-2-(2,2′-dimethyl-3′-(5-((methylamino)methyl)-6-((4-(methylsulfonyl)benzyl)oxy)benzo[d]oxazol-2-yl)-[1,1′-biphenyl]-3-yl)benzo[d]oxazol-5-yl)methyl)-L-proline]
12 | 0.1 to 5 | Cc1c(-c2nc3cc(CN(C)C)c(OCc4ccc(S(C)(=O)=O)cc4)cc3o2)cccc1-c1cccc(-c2nc3cc(CN4CCC[C@H]4C(=O)O)c(OC(F)F)cc3o2)c1C [Example 126, ((6-(difluoromethoxy)-2-(3′-(5-((dimethylamino)methyl)-6-((4-(methylsulfonyl)benzyl)oxy)benzo[d]oxazol-2-yl)-2,2′-dimethyl-[1,1′-biphenyl]-3-yl)benzo[d]oxazol-5-yl)methyl)-L-proline]
13 | 0.1 to 5 | Cc1c(-c2nc3cc(CN4CCC[C@H]4C(=O)O)c(OC(F)F)cc3o2)cccc1-c1cccc(-c2nc3cc(CN4CC[C@H](C)C4)cc(C#N)c3o2)c1C [Example 130, ((2-(3′-(7-cyano-5-(((S)-3-methylpyrrolidin-1-yl)methyl)benzo[d]oxazol-2-yl)-2,2′-dimethyl-[1,1′-biphenyl]-3-yl)-6-(difluoromethoxy)benzo[d]oxazol-5-yl)methyl)-L-proline]
14 | 0.1 to 5 | Cc1c(-c2nc3cc(CN4CCC[C@H]4C(=O)O)c(OC(F)F)cc3o2)cccc1-c1cccc(-c2nc3cc(CNC4(C)COC4)cc(C#N)c3o2)c1C [Example 133, ((2-(3′-(7-cyano-5-(((3-methyloxetan-3-yl)amino)methyl)benzo[d]oxazol-2-yl)-2,2′-dimethyl-[1,1′-biphenyl]-3-yl)-6-(difluoromethoxy)benzo[d]oxazol-5-yl)methyl)-L-proline]
15 | 0.1 to 5 | Cc1c(-c2nc3cc(CN4CCC[C@H]4C(=O)O)c(OC(F)F)cc3o2)cccc1-c1cccc(-c2nc3cc(CN4CC(N(C)C)C4)cc(C#N)c3o2)c1C [Example 134, ((2-(3′-(7-cyano-5-((3-(dimethylamino)azetidin-1-yl)methyl)benzo[d]oxazol-2-yl)-2,2′-dimethyl-[1,1′-biphenyl]-3-yl)-6-(difluoromethoxy)benzo[d]oxazol-5-yl)methyl)-L-proline]

Second part, the molecule before the results:

Row | SMILES | IC50 [nM]
16 | Cc1c(-c2nc3cc(CN4CCC[C@H]4C(=O)O)c(OC(F)F)cc3o2)cccc1-c1cccc(-c2nc3ccc(CN4CC(C)(C)C4)cc3o2)c1Cl [Example 110, ((2-(2′-chloro-3′-(6-((3,3-dimethylazetidin-1-yl)methyl)benzo[d]oxazol-2-yl)-2-methyl-[1,1′-biphenyl]-3-yl)-6-(difluoromethoxy)benzo[d]oxazol-5-yl)methyl)-L-proline] | 0.1 to 5
17 | Cc1c(-c2nc3cc(CN4CCC[C@@H]4C(=O)O)c(OC(F)F)cc3o2)cccc1-c1cccc(-c2nc3ccc(CN4CC(C)(C)C4)cc3o2)c1Cl [Example 111, ((2-(2′-chloro-3′-(6-((3,3-dimethylazetidin-1-yl)methyl)benzo[d]oxazol-2-yl)-2-methyl-[1,1′-biphenyl]-3-yl)-6-(difluoromethoxy)benzo[d]oxazol-5-yl)methyl)-D-proline] | 0.1 to 5
18 | Cc1c(-c2nc3cc(CN4CCC[C@H]4C(=O)O)c(OC(F)F)cc3o2)cccc1-c1cccc(-c2nc3cc(CN4CCCC4)cnc3o2)c1C [Example 112, ((6-(difluoromethoxy)-2-(2,2′-dimethyl-3′-(6-(pyrrolidin-1-ylmethyl)oxazolo[5,4-b]pyridin-2-yl)-[1,1′-biphenyl]-3-yl)benzo[d]oxazol-5-yl)methyl)-L-proline] | 0.1 to 5
19 | Cc1c(-c2nc3cc(CN4CCC[C@H]4C(=O)O)c(OC(F)F)cc3o2)cccc1-c1cccc(-c2nc3cc(CNCC4CCC(=O)N4)cnc3o2)c1C (stereo partly drawn) [Example 115, ((6-(difluoromethoxy)-2-(2,2′-dimethyl-3′-(6-((((5-oxopyrrolidin-2-yl)methyl)amino)methyl)oxazolo[5,4-b]pyridin-2-yl)-[1,1′-biphenyl]-3-yl)benzo[d]oxazol-5-yl)methyl)-L-proline] | 0.1 to 5
20 | Cc1c(-c2nc3cc(CN4CCC[C@H]4C(=O)O)c(OC(F)F)cc3o2)cccc1-c1cccc(-c2nc3cc(CN4CC(N(C)C)C4)cnc3o2)c1C [Example 116, ((6-(difluoromethoxy)-2-(3′-(6-((3-(dimethylamino)azetidin-1-yl)methyl)oxazolo [5,4-b]pyridin-2-yl)-2,2′-dimethyl-[1,1′-biphenyl]-3-yl)benzo[d]oxazol-5-yl)methyl)-L-proline] | 0.1 to 5
21 | CCNCc1cc2nc(-c3cccc(-c4cccc(-c5nc6cc(CN7CCC[C@H]7C(=O)O)c(OC(F)F)cc6o5)c4C)c3C)oc2cc1OCc1cncc(S(C)(=O)=O)c1 [Example 122, ((6-(difluoromethoxy)-2-(3′-(5-((ethylamino)methyl)-6-((5-(methylsulfonyl)pyridin-3-yl)methoxy)benzo[d]oxazol-2-yl)-2,2′-dimethyl-[1,1′-biphenyl]-3-yl)benzo[d]oxazol-5-yl)methyl)-L-proline] | 0.1 to 5
